Source: ChEMBL document CHEMBL1154835, “Antimicrobial study of newly synthesized 6-substituted indolo[1,2-c]quinazolines” (2010)
In brackets after ≈: the same amount, converted by molar mass.

How the values were obtained:
Staphylococcus aureus [1] = experiment: Antimicrobial activity against Staphylococcus aureus at 1000 ug after 24 hrs by cup plate method; assay type: functional; settings: read-out: DIZ
Bacillus subtilis [2] = experiment: Antimicrobial activity against Bacillus subtilis at 1000 ug after 24 hrs by cup plate method; assay type: functional; settings: read-out: DIZ
Streptococcus pyogenes [3] = experiment: Antimicrobial activity against Streptococcus pyogenes at 1000 ug after 24 hrs by cup plate method; assay type: functional; settings: read-out: DIZ
Escherichia coli [4] = experiment: Antimicrobial activity against Escherichia coli at 1000 ug after 24 hrs by cup plate method; assay type: functional; settings: read-out: DIZ
Salmonella enterica [5] = experiment: Antimicrobial activity against Salmonella Typhimurium at 1000 ug after 24 hrs by cup plate method; assay type: functional, Salmonella enterica subsp. enterica serovar Typhimurium; settings: read-out: DIZ
Klebsiella pneumoniae [6] = experiment: Antimicrobial activity against Klebsiella pneumoniae at 1000 ug after 24 hrs by cup plate method; assay type: functional; settings: read-out: DIZ
Aspergillus niger [7] = experiment: Antimicrobial activity against Aspergillus niger at 1000 ug after 72 hrs by cup plate method; assay type: functional; settings: read-out: DIZ
Candida albicans [8] = experiment: Antimicrobial activity against Candida albicans at 1000 ug after 72 hrs by cup plate method; assay type: functional; settings: read-out: DIZ
Trichoderma viride [9] = experiment: Antimicrobial activity against Trichoderma viride at 1000 ug after 72 hrs by cup plate method; assay type: functional; settings: read-out: DIZ
Staphylococcus aureus [10] = experiment: Antimicrobial activity against Staphylococcus aureus after 24 hrs by liquid dilution method; assay type: functional
Bacillus subtilis [11] = experiment: Antimicrobial activity against Bacillus subtilis after 24 hrs by liquid dilution method; assay type: functional
Streptococcus pyogenes [12] = experiment: Antimicrobial activity against Streptococcus pyogenes after 24 hrs by liquid dilution method; assay type: functional
Salmonella enterica [13] = experiment: Antimicrobial activity against Salmonella Typhimurium after 24 hrs by liquid dilution method; assay type: functional, Salmonella enterica subsp. enterica serovar Typhimurium
Escherichia coli [14] = experiment: Antimicrobial activity against Escherichia coli after 24 hrs by liquid dilution method; assay type: functional
Klebsiella pneumoniae [15] = experiment: Antimicrobial activity against Klebsiella pneumoniae after 24 hrs by liquid dilution method; assay type: functional
Aspergillus niger [16] = experiment: Antimicrobial activity against Aspergillus niger after 24 hrs by liquid dilution method; assay type: functional
Candida albicans [17] = experiment: Antimicrobial activity against Candida albicans after 24 hrs by liquid dilution method; assay type: functional
Trichoderma viride [18] = experiment: Antimicrobial activity against Trichoderma viride after 24 hrs by liquid dilution method; assay type: functional

| MIC (Staphylococcus aureus [10]) [µg/mL] | MIC (Bacillus subtilis [11]) [µg/mL] | MIC (Streptococcus pyogenes [12]) [µg/mL] | MIC (Salmonella enterica [13]) [µg/mL] | MIC (Escherichia coli [14]) [µg/mL] | MIC (Klebsiella pneumoniae [15]) [µg/mL] | MIC (Aspergillus niger [16]) [µg/mL] | MIC (Candida albicans [17]) [µg/mL] | MIC (Trichoderma viride [18]) [µg/mL] | Structure (SMILES) | zone of inhibition at 1000 µg/disc (Staphylococcus aureus [1]) [mm] | zone of inhibition at 1000 µg/disc (Bacillus subtilis [2]) [mm] | zone of inhibition at 1000 µg/disc (Streptococcus pyogenes [3]) [mm] | zone of inhibition at 1000 µg/disc (Escherichia coli [4]) [mm] | zone of inhibition at 1000 µg/disc (Salmonella enterica [5]) [mm] | zone of inhibition at 1000 µg/disc (Klebsiella pneumoniae [6]) [mm] | zone of inhibition at 1000 µg/disc (Aspergillus niger [7]) [mm] | zone of inhibition at 1000 µg/disc (Candida albicans [8]) [mm] | zone of inhibition at 1000 µg/disc (Trichoderma viride [9]) [mm] |
| --- | --- | --- | --- | --- | --- | --- | --- | --- | --- | --- | --- | --- | --- | --- | --- | --- | --- | --- |
| 5 (≈ 13.8 µM) | 5 (≈ 13.8 µM) | 10 (≈ 27.5 µM) | 5 (≈ 13.8 µM) | 5 (≈ 13.8 µM) | 5 (≈ 13.8 µM) | 10 (≈ 27.5 µM) | 15 (≈ 41.3 µM) | 10 (≈ 27.5 µM) | COc1ccc2[nH]cc(-c3nc4ccccc4c4cc5ccccc5n34)c2c1 | 50 | 49 | 39 | 50 | 42 | 46 | 49 | 48 | 49 |
| 5 (≈ 14.4 µM) | 10 (≈ 28.8 µM) | 5 (≈ 14.4 µM) | 5 (≈ 14.4 µM) | 2.5 (≈ 7.2 µM) | 2.5 (≈ 7.2 µM) | 2.5 (≈ 7.2 µM) | 20 (≈ 57.6 µM) | 5 (≈ 14.4 µM) | Cc1ccc2[nH]cc(-c3nc4ccccc4c4cc5ccccc5n34)c2c1 | 52 | 42 | 45 | 42 | 46 | 48 | 50 | 51 | 46 |
| 2.5 (≈ 7.13 µM) | 2.5 (≈ 7.13 µM) | 5 (≈ 14.3 µM) | 2.5 (≈ 7.13 µM) | 2.5 (≈ 7.13 µM) | 5 (≈ 14.3 µM) | 2.5 (≈ 7.13 µM) | 10 (≈ 28.5 µM) | 2.5 (≈ 7.13 µM) | c1ccc2c(c1)cc1c3ccccc3nc(-c3csc4ccccc34)n21 | 55 | 51 | 48 | 48 | 50 | 50 | 52 | 45 | 49 |
| 2.5 (≈ 7.5 µM) | 15 (≈ 45 µM) | 2.5 (≈ 7.5 µM) | 2.5 (≈ 7.5 µM) | 2.5 (≈ 7.5 µM) | 5 (≈ 15 µM) | 10 (≈ 30 µM) | 5 (≈ 15 µM) | 2.5 (≈ 7.5 µM) | c1ccc2c(c1)cc1c3ccccc3nc(-c3c[nH]c4ccccc34)n21 | 51 | 46 | 49 | 52 | 48 | 49 | 46 | 49 | 50 |

The remaining lines, values behind:

| Structure (SMILES) | MIC (Staphylococcus aureus [10]) [µg/mL] | MIC (Bacillus subtilis [11]) [µg/mL] | MIC (Streptococcus pyogenes [12]) [µg/mL] | MIC (Salmonella enterica [13]) [µg/mL] | MIC (Escherichia coli [14]) [µg/mL] | MIC (Klebsiella pneumoniae [15]) [µg/mL] | MIC (Aspergillus niger [16]) [µg/mL] | MIC (Candida albicans [17]) [µg/mL] | MIC (Trichoderma viride [18]) [µg/mL] | zone of inhibition at 1000 µg/disc (Staphylococcus aureus [1]) [mm] | zone of inhibition at 1000 µg/disc (Bacillus subtilis [2]) [mm] | zone of inhibition at 1000 µg/disc (Streptococcus pyogenes [3]) [mm] | zone of inhibition at 1000 µg/disc (Escherichia coli [4]) [mm] | zone of inhibition at 1000 µg/disc (Salmonella enterica [5]) [mm] | zone of inhibition at 1000 µg/disc (Klebsiella pneumoniae [6]) [mm] | zone of inhibition at 1000 µg/disc (Aspergillus niger [7]) [mm] | zone of inhibition at 1000 µg/disc (Candida albicans [8]) [mm] | zone of inhibition at 1000 µg/disc (Trichoderma viride [9]) [mm] |
| --- | --- | --- | --- | --- | --- | --- | --- | --- | --- | --- | --- | --- | --- | --- | --- | --- | --- | --- |
| c1ccc2cc(-c3nc4ccccc4c4cc5ccccc5n34)c(-c3nc4ccccc4c4cc5ccccc5n34)cc2c1 | 5 (≈ 8.92 µM) | 15 (≈ 26.8 µM) | 15 (≈ 26.8 µM) | 35 (≈ 62.4 µM) | 35 (≈ 62.4 µM) | 20 (≈ 35.7 µM) | 35 (≈ 62.4 µM) | 25 (≈ 44.6 µM) | 30 (≈ 53.5 µM) | 50 | 45 | 39 | 12 | 14 | 35 | 17 | 16 | 12 |
| c1ccc2c(c1)cc1c3ccccc3nc(-c3ccc(Oc4ccc(-c5nc6ccccc6c6cc7ccccc7n56)cc4)cc3)n21 |  |  |  |  |  |  |  |  |  | 18 | 14 | 13 | 14 | 11 | 21 | 10 | 9 | 18 |
| c1ccc(-c2nc3ccccc3c3cc4ccccc4n23)c(-c2nc3ccccc3c3cc4ccccc4n23)c1 | 5 (≈ 9.79 µM) | 20 (≈ 39.2 µM) | 20 (≈ 39.2 µM) | 25 (≈ 49 µM) | 20 (≈ 39.2 µM) | 30 (≈ 58.8 µM) | 20 (≈ 39.2 µM) | 35 (≈ 68.5 µM) | 35 (≈ 68.5 µM) | 52 | 40 | 46 | 16 | 18 | 14 | 20 | 13 | 18 |
| c1cc(-c2nc3ccccc3c3cc4ccccc4n23)cc(-c2nc3ccccc3c3cc4ccccc4n23)c1 | 5 (≈ 9.79 µM) | 15 (≈ 29.4 µM) | 15 (≈ 29.4 µM) | 20 (≈ 39.2 µM) | 10 (≈ 19.6 µM) | 35 (≈ 68.5 µM) | 30 (≈ 58.8 µM) | 30 (≈ 58.8 µM) | 25 (≈ 49 µM) | 51 | 46 | 48 | 20 | 35 | 18 | 12 | 15 | 21 |
| c1ccc2c(c1)cc1c3ccccc3nc(-c3ccc(-c4nc5ccccc5c5cc6ccccc6n45)cc3)n21 |  |  |  |  |  |  |  |  |  | 25 | 14 | 18 | 16 | 11 | 13 | 12 | 21 | 9 |
| c1ccc2c(c1)cc1c3ccccc3nc(-c3ccc(-c4ccncc4)cc3)n21 | 5 (≈ 13.5 µM) | 10 (≈ 26.9 µM) | 15 (≈ 40.4 µM) | 20 (≈ 53.8 µM) | 25 (≈ 67.3 µM) | 30 (≈ 80.8 µM) | 25 (≈ 67.3 µM) | 30 (≈ 80.8 µM) | 25 (≈ 67.3 µM) | 50 | 48 | 42 | 35 | 25 | 42 | 22 | 18 | 21 |
| CC1(C)S[C@@H]2[C@H](NC(=O)[C@H](N)c3ccccc3)C(=O)N2[C@H]1C(=O)O [AMPICILLIN] | 10 (≈ 28.6 µM) | 20 (≈ 57.2 µM) | 25 (≈ 71.5 µM) | 10 (≈ 28.6 µM) | 5 (≈ 14.3 µM) | 10 (≈ 28.6 µM) |  |  |  | 48 | 39 | 35 | 40 | 45 | 45 |  |  |  |
| CC(=O)N1CCN(c2ccc(OCC3COC(Cn4ccnc4)(c4ccc(Cl)cc4Cl)O3)cc2)CC1 (stereo not given) [KETOCONAZOLE] |  |  |  |  |  |  | 15 (≈ 28.2 µM) | 25 (≈ 47 µM) | 20 (≈ 37.6 µM) |  |  |  |  |  |  | 45 | 40 | 41 |
